Data reported in patent publication US11746097B2, “LXR inverse agonists for treatment of cancer” (Saint Louis University, priority 2016, dated 2023).

What was measured:
human LXRα-LBD = target: T1, human LXRα-LBD (Homo sapiens, UniProt Q13133); test: Lantha Screen TR-FRET NR-cofactor peptide interaction assay; format: biochemical
T1 construct: Purified human LXRα-LBD (GST); purchased Life Technologies
T1 sequence (Q13133 209-447 limits assumed): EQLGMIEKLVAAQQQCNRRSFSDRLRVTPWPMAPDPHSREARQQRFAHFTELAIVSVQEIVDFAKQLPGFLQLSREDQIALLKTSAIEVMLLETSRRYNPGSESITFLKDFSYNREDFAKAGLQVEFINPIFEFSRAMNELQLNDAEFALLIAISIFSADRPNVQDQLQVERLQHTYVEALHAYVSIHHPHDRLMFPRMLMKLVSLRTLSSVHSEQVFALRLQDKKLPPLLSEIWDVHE
Experimental: Biochemical NR—Cofactor Peptide Interaction Assay (TR-FRET) Assay (Life Technologies kit). Purified human LXRα-LBD (GST), LXRβ-LBD (GST), fluoroscein (FL)-labeled peptides, terbium (TB)-labeled anti-GST tag antibody, and all buffers were purchased from Life Technologies. All LXR assays were conducted in 384-well black medium-binding polystyrene assay plates (Greiner Bio-One). Test compound stock solutions and subsequent serial dilutions were prepared at 100× the final concentration in DMSO, and then were diluted to the final assay concentration of 2× in assay buffer and dispensed into assay plates. LXR-LBDs were added to assay plates and then a mixture of FL-peptide/TB-anti-GST was added to each well containing either a test compound or DMSO control for final concentrations of 2.5 nM LXRα-LBD, 5 nM LXRβ-LBD, 10 nM TB-anti-GST, and 250 nM FL-peptide. Assay plates were protected from light and incubated with gentle shaking for 3.5 hours at room temperature. The TR-FRET ratio (520 nm/492 nm) of each assay well was measured using the Perkin Elmer EnVision plate reader. An excitation filter at 340 nm was used to excite the TB-anti-GST and emission filters 492 nm and 520 nm were used to detect terbium and fluorescein emission signals respectively. A delay of 100 μs followed by a 200 μs integration time was used to collect the time-resolved emission signals.
The assay is identical except we use His-tagged LXR (made in house) and TB-labeled anti-His antibody (Life Technologies). FL-labeled peptides (Life Technologies) are: • NCOR-ID1 NCOR-ID2 SMRT SRC1-2 SRC2-3 TRAP/DRIP

dendritic cell = test: Cultured dendritic cell chemokine expression (FIG. 1A); format: cell-based; conditions: cultured dendritic cells
[1] = system: lung and breast tumor bearing mice; test: Tumor specific immune response in tumor bearing mice (FIG. 1B); format: in vivo

COC(=O)C1Cc2cc(-c3cccc(S(C)(=O)=O)c3)ccc2CN1S(=O)(=O)c1c(C)cc(C)cc1C (stereo not shown) [Compound 3, methyl 2-(mesitylsulfonyl)-6-(3-(methylsulfonyl)phenyl)-1,2,3,4-tetrahydroisoquinoline-3-carboxylate]
IC50 (human LXRα-LBD): 5 µM

Cc1cc(C)c(S(=O)(=O)N2Cc3ccc(-c4cccc(S(C)(=O)=O)c4)cc3CC2C(=O)NCc2ccc(C#N)cc2)c(C)c1 (stereo not shown) [Compound 5, N-(4-cyanobenzyl)-2-(mesitylsulfonyl)-6-(3-(methylsulfonyl)phenyl)-1,2,3,4 tetrahydroisoquinoline-3-carboxamide]
IC50 (human LXRα-LBD): 8.3 µM

Cc1cc(C)c(S(=O)(=O)N2Cc3ccc(-c4cccc(S(C)(=O)=O)c4)cc3CC2C(=O)NCc2cccc(C#N)c2)c(C)c1 (stereo not shown) [Compound 12]
IC50 (human LXRα-LBD): 0.02 µM

Cc1cc(C)c(S(=O)(=O)N2Cc3ccc(-c4cccc(S(C)(=O)=O)c4)cc3CC2C(=O)NCCc2cccc(C#N)c2)c(C)c1 (stereo not shown) [Compound 14]
IC50 (human LXRα-LBD): 2.1 µM

Cc1cc(C)c(S(=O)(=O)N2Cc3ccccc3CC2C(=O)NCCc2cccc(C#N)c2)c(C)c1 (stereo not shown) [Compound 38]
IC50 (human LXRα-LBD): 0.661 µM

COc1ccc(-c2ccc3nc(NS(=O)(=O)c4c(C)cc(C)cc4C)ccc3c2)cc1 [Compound 104]
IC50 (human LXRα-LBD): 4.3 µM

O=C(Nc1ccc2cc(Br)ccc2n1)c1cccc(Cl)c1 [Compound 113]
IC50 (human LXRα-LBD): 5.2 µM

Cc1cc(C)c(S(=O)(=O)N(CCc2cccc(Br)c2)Cc2ccc(-c3cccc(S(C)(=O)=O)c3)cc2)c(C)c1 [SR9243]
inhibition of dendritic cell chemokine expression by LXR agonists and tumor specific LXR ligands (dendritic cell): disrupted
cytotoxic T-cell activity [1]: induces
dendritic cell activity [1]: induces
